Tests used:
[1] = system: TNF-α induced insulin resistant 3T3-L1 adipocytes; assay: Glucose uptake in TNFα induced insulin resistant 3T3-L1 differentiated adipocytes; assay type: cell-based; settings: for glucose uptake (in words): not shown
Experimental: 3T3L1 fibroblasts were maintained in DMEM 4.5 g/L glucose supplemented with 5% calf serum donor, 5% new born calf serum, 100 U/mL penicillin, and 100 μg/mL streptomycin at 37° C. under a 10% CO2 atmosphere. Cells were grown on 24 well plates at a density of 2560 cells/well in 0.5 mL of growth medium (DMEM 4.5 g/L glucose supplemented with 10% FCS, 100 U/mL penicillin, and 100 μg/mL streptomycin). […] Fresh medium were replaced after two days.
Glucose uptake was measured by quantification of incorporated radiolabelled glucose, after an incubation step with 2-deoxy-D[1,2^3H] glucose for 5 min. Glucose uptake was arrested by two washing steps in ice-cold PBS 1×. Then were solubilized in 0.1N NaOH for 30 min. Cell associated radioactivity have been then counted by using a MicroBeta counter after adding 600 μL per well of scintillant (Optiphase SuperMix3).
In parallel, protein quantification was determined by a colorimetric assay derived from LOWRY method. Results are expressed in nmol of glucose incorporated/5 min/mg of protein and in % of control or basal condition (100%).

[2] = Results synthesis: relative performance value over all in vitro models; settings: results of all in vitro models normalized and weighed; single drugs
Text: Table 4 gathers results that were obtained in all previously described models (see points from 1.1 to 1.5 above). A value is attributed to each candidate compound depending on its effect in the different in vitro models compared to vehicle. Results are normalized and weighed in order to generate a relative performance value for each candidate compound. A high value reflects a high potential of the compound for the normalization of glucose level and thus a significant efficacy for controlling glucose levels and/or for the treatment of diabetes or related disorders. […]

[3] = system: beta pancreatic INS-1 cells; assay: Prevention of beta cells apoptosis; assay type: cell-based; settings: 1 h pre-incubation then 24 h in apoptotic condition, drugs tested alone
Experimental: Drugs of the invention have been tested for their efficiency in protecting beta cells from apoptosis. Such activity could be considered of use in type 1 diabetes as well as in type 2 diabetes.
The beta pancreatic INS-1 cells have been selected for this study. The cells are cultured in complete medium, RPMI 1640 10 mM glucose supplemented with 1 mM sodium pyruvate, 50 μM 2-mercaptoethanol, 2 mM glutamine, 10 mM HEPES, 100 IU/mL penicillin, 100 μg/mL streptomycin and 10% heat-inactivated foetal calf serum (FCS), as described by Asfari et al. (23). INS-1 cells are plated (4.5×10^4 cells/well) in 96-well poly ornithine coated plates and cultured at 37° C. in a humidified atmosphere of 95% air/5% CO2. The day after, cells are pre-incubated with the tested molecules for 1 h. Then, after a medium change, cells are cultured for 24 h in a medium containing the tested molecules and glucose 30 mM, myristic acid 0.05 mM, INF 25 ng/mL, TNF 25 ng/mL and IL 5 ng/mL.
The efficacy of compounds to prevent apoptosis is then evaluated by the highly specific apoptosis detection kit from Chemicon (Ref. APT225). This procedure is based on the detection of single-stranded DNA (ssDNA) which is a specific marker of apoptotic cells (24).
Results are expressed in optical density (OD) arbitrary unit and % of reduction of the apoptosis induced by apoptotic condition. […]

[4] = system: Mouse muscle cells H-2 Kb; assay: Glucose uptake in mouse muscle cells; assay type: cell-based; settings: H-2 Kb cells; short term; 0.1 μM; vs non-treated cells
Experimental: For differentiation in myoblast, cells are switched to non-permissive culture conditions (37° C. in a humidified atmosphere of 95% air/5% CO2; DMEM 5.5 mM D-glucose supplemented with 2% FCS, 10% horse serum, 2% glutamine, 1% chicken embryo extract, 100 U/mL penicillin, and 100 μg/mL streptomycin).
For long term effect evaluation, the day before glucose uptake assay, cells are incubated in DMEM 5.5 mM D-glucose supplemented with 10% horse serum, 2% SVF, 1% chicken embryo extract, 2% glutamine in the presence of the tested molecules for 16 h. […]
For short term effect evaluation, 4 hours prior to the glucose test, cells are washed and incubated in a serum-free medium (DMEM) containing 5.5 mM D-glucose and the tested molecules. Then glucose uptake is measured by incubation of the cells for 5-10 min with radiolabelled 2-deoxy-D-[1,2 ^3H] glucose in Krebs-Ringer HEPES buffer (KRBH; pH 7.4) 0.1% Bovine Serum Albumine (BSA) fraction V (Sigma_A-4503). […] Cell associated radioactivity is then counted and protein quantification is determined using the colorimetric Lowry method. Glucose uptake is estimated by measuring the radioactivity incorporated to the cells by a MicroBeta counter after adding 600 μL per well of scintillant (Optiphase SuperMix3).
Protein quantification is performed by a colorimetric assay derived from Lowry method. […]

[5] = mainly from Martindale (Edition 2011) and Nathan et al. (2009); cited from earlier work
[6] = system: human primary myotubes derived from a diabetic patient; assay: Glucose uptake in human diabetic myotubes primary cultures; assay type: cell-based; settings: for enhancement of glucose uptake: pre-treatment
Experimental: In order to have a model that is most reflective of the diabetic pathological conditions, efficiency of drugs in enhancing glucose uptake in diabetic myotubes was tested. […] The myotubes from a diabetic patient were grown on HAM's F10-based media (Sigma, ref […]) supplemented with 15% of fetal bovine serum, 1 mM glutamine. Myoblast were seeded at 380,000 cells/well in 12-well plates. After 2 days of proliferation, the cells were placed in reduced serum conditions (2% horse serum) to induce differentiation. The myotubes were used after 5 days of differentiation. Dulbecco's modified Eagle's medium (DMEM)-based media (Gibco, ref 31053-028) supplemented with 2% heat-inactivated Horse serum, 2% Glutamax (Gibco, 35050) and washed for glucose uptake assays. Compounds were dissolved in DMSO to reach desired final concentration prior use. The differentiated myotubes were treated for 24 h with the compositions of the invention, before the assay. Before the initiation of glucose uptake, the cells were deprived of serum and glucose. […] After adding the compounds at the desired concentrations, the cells were incubated at 37° C. during 2 h30. […] A subsequent glucose and serum deprivation was performed in FIBS buffer at 37° C. for 2 hours. […] The cells were rinsed twice with 1 mL of cold PBS. The lysis was performed in 500 μL of 0.05N NaOH for 20 minutes. The cells lysates were transferred into scintillation vials for the measurement of radioactivity with a MicroBeta counter.

Row | Structure (SMILES) | Relative performance value [2] | further results
1 | NCC(CC(=O)O)c1ccc(Cl)cc1 (racemic) [baclofen] | 16 | glucose uptake, drug used alone (in words) ([1]; alone at 3.3 nM): No significant effect
2 | O=C[C@@H](O)[C@@H](O)[C@H](O)[C@H](O)CO [D-mannose] | 18 | –
3 | CC(=O)NCCCS(=O)(=O)O [acamprosate] | 15 | Percentage of apoptosis reduction [3]: 49%; enhancement of glucose uptake [4]: +45%
4 | C=CCNc1nc(NCC=C)nc(N2CCN(C(c3ccc(F)cc3)c3ccc(F)cc3)CC2)n1 [almitrine] | 38 | –
5 | CN1CCCC(n2nc(Cc3ccc(Cl)cc3)c3ccccc3c2=O)CC1 (centres unmarked) [azelastine] | 30 | –
6 | CCN(CC)CCOCCOC(=O)C1(c2ccccc2)CCCC1 [carbetapentane] | 33 | –
7 | CN/C(=N/CCSCc1nc[nH]c1C)NC#N [cimetidine] | 31 | –
8 | C[C@@H](NCCCc1cccc(C(F)(F)F)c1)c1cccc2ccccc12 [cinacalcet] | 32 | –
9 | CN(C)CC[C@@H](c1ccc(Br)cc1)c1ccccn1 [dexbrompheniramine] | 21 | –
10 | CCN[C@@H](C)Cc1cccc(C(F)(F)F)c1 [dexfenfluramine] | – | Side Effects [5]: Cardiovascular
11 | CCN(CC)C(=O)N1CCN(C)CC1 [diethylcarbamazine] | 32 | –
12 | Cn1c(=O)c2c(ncn2CC(O)CO)n(C)c1=O (centres unmarked) [diprophylline] | 11 | –
13 | O=C1NCC2(CCN(CCc3ccccc3)CC2)O1 [fenspiride] | – | enhancement of glucose uptake ([6]; 0.01 μM): +34%; enhancement of glucose uptake ([6]; 0.1 μM): +30%; enhancement of glucose uptake ([6]; 1 μM): +27%; glucose uptake (in words) ([1]; 0.37 nM and 3.3 nM): improvement
14 | COC1=C(OC)C(=O)C(CCCCCCCCCCO)=C(C)C1=O [idebenone] | 53 | –
15 | CC(C(O)c1ccc(O)cc1)N1CCC(Cc2ccccc2)CC1 (centres unmarked) [ifenprodil] | 28 | glucose uptake (in words) ([6]; 0.1 μM and 1 μM): improvement; enhancement of glucose uptake ([6]; 0.01 μM): +48%; glucose uptake (in words) ([1]; 10 nM and 100 nM): improvement
16 | C[C@@H]1CC(=O)NN=C1c1ccc(NN=C(C#N)C#N)cc1 [levosimendan] | 20 | –
17 | CN(C)C(=N)N=C(N)N [metformin] | – | glucose uptake, drug used alone (in words) ([1]; metformin alone at 250 μM): No significant effect
18 | Cc1cccc(C)c1OCC(C)N (centres unmarked) [mexiletine] | 10 | –
19 | CO[C@]12C[C@@H](COC(=O)c3cncc(Br)c3)CN(C)[C@@H]1Cc1cn(C)c3cccc2c13 [nicergoline] | 40 | –
20 | c1cnc(N2CCN(Cc3ccc4c(c3)OCO4)CC2)nc1 [piribedil] | 24 | –
21 | C1COC(NC(C2CC2)C2CC2)=N1 [rilmenidine] | 16 | –
22 | Cc1c(Cl)cccc1Nc1ccccc1C(=O)O [tolfenamic acid] | 9 | enhancement of glucose uptake ([6]; 0.01 μM): +13%; enhancement of glucose uptake ([6]; 0.1 μM): +13%; enhancement of glucose uptake ([6]; 1 μM): +12%; glucose uptake (in words) ([1]; 100 nM and 1 μM): improvement; glucose uptake, drug used alone (in words) ([1]; alone at 3.3 nM): No significant effect
23 | Cc1ccc(C(=O)C(C)CN2CCCCC2)cc1 (centres unmarked) [tolperisone] | 19 | –
24 | Cc1cccc(Nc2ccncc2S(=O)(=O)NC(=O)NC(C)C)c1 [torasemide] | 16 | enhancement of glucose uptake ([6]; 0.01 μM): +24%; enhancement of glucose uptake ([6]; 1 μM): +14%; glucose uptake, drug used alone (in words) ([1]; alone at 10 nM): No significant effect
25 | Nc1nc(N)c2nc(-c3ccccc3)c(N)nc2n1 [triamterene] | 18 | enhancement of glucose uptake ([6]; 0.01 μM): +13%; glucose uptake, drug used alone (in words) ([1]; alone at 3.3 nM): No significant effect

Source: patent US10617689B2, “Compositions, methods and uses for the treatment of diabetes and related conditions by controlling blood glucose level” (PHARNEXT, priority 2013, dated 2020)
